Measured values: patent publication US20170114128A1, “USE OF TGF-BETA ANTAGONISTS OF TREAT TYPE-2 DIABETES” (ALBERT EINSTEIN COLLEGE OF MEDICINE, INC., priority 2014, published 2017)

Tests used:
[1] = system: hypothalamic RNA SGs/PBs genes, IκBα mRNA, Pomc mRNA; assay: Hypothalamic mRNA levels and HuR immunostaining after third-ventricle TGF-β1; format: in vivo, mice
Description: POMC neurons direct the pro-T2D effect of TGF-β excess: It was subsequently studied if hypothalamic neurons are critical for the pro-diabetic effects of brain TGF-β excess. […] It was studied if POMC neurons could be crucial for the pro-diabetic effect of brain TGF-β excess. […] To carry out this study, a genetic mouse model was generated with Tgfbr2 knockout specifically in POMC neurons by crossing Tgfbr2lox/lox mice with POMC-Cre mice. As a result, compound offspring POMC-Tgfbr2lox/lox mice were obtained and littermate control Tgfbr2lox/lox mice. These mice were maintained on normal chow feeding or 3-week HFD feeding. […] Taken together, the action of TGF-β in POMC neurons is important for the pro-diabetic effect of brain TGF-β excess. POMC-Cre can target other types of neurons during the developmental stage (34), thus, the pro-diabetic mechanism of TGF-β may involve additional hypothalamic or brain neurons.
Induction of hypothalamic RNA SGs/PBs by TGF-β or HFD: In exploring how TGF-β could activate hypothalamic NF-κB without requiring pro-inflammatory kinase signaling, attention was directed to a possible role from mRNA regulation. In coping with inflammatory stress, eukaryotic cells can develop a process known as RNA stress response which is characterized by RNA stress granules (SGs) and processing bodies (PBs) (36-38). In this reaction, messenger ribonuclear protein (mRNP) byproducts exit from polysomes and form RNA SGs at discrete cytoplasmic foci. RNA SGs primarily consist of poly(A)+mRNAs-containing 48S pre-initiation complexes, small ribosomal subunits, mRNA decay factor tristetraprolin (TTP), translation initiation factors such as eukaryotic translation initiation factor-4E (eIF4E), eIF4G, eIF4A, eIF4B, poly(A)-binding protein (PABP), and RNA helicases (36-38). RNA stress response can lead to the export of mRNPs into the PBs, a complex which harbors an array of mRNA decay machineries that act to dispose mRNAs from SGs or polysomes (36-38). PBs contain nontranslating mRNAs, translation repressors, mRNA decay machineries (including 5′-3′ mRNA decay system, nonsense-mediated decay pathway, and RNA-induced silencing complex), and mRNA decay factors such as TTP, eIF4E, DEAD box RNA helicase family member p54/RCK, […] (CPEB), B-related factor 1/RNA polymerase III transcription initiation factor IIIB subunit (BRF1), eukaryotic translation initiation factor 4E transporter (4-ET), and RNA-binding protein Smaug (36-38). […] In line with these observations, we examined if the morphology of RNA SGs could be detected in the hypothalamus of these mice. […] Consistently, these morphological changes were found in the hypothalamus of HFD-fed mice but almost not chow-fed mice (supplementary FIG. 6b). […]

[2] = system: hypothalamic GT1-7 cells; assay: IκBα mRNA levels in GT1-7 cells after TGF-β1 treatment; format: cell-based; details: GT1-7 cells, TGF-β1 10 ng/ml
Description: TGF-β degrades IκBα mRNA to atypically activate NF-κB: RNA SGs/PBs have the function to degrade mRNAs by targeting the AU-rich element (AUE) at the 3′ untranslated region (UTR) (36-38). […] This information led to the suspicion that TGF-β could work to degrade IκBα mRNA. […] To test if TGF-β induced IκBα mRNA decay is accountable for the glucose metabolism disorder, an experiment was designed to study if the pro-diabetic effect of brain TGF-β excess could be reversed through directly increasing hypothalamic IκBα mRNA. Using an approach which was established previously (23), a lentiviral system was employed to deliver exogenous Iκbα mRNA into the mediobasal hypothalamus of chow-fed C57BL/6 mice, and indeed, this lentivirus-delivered Iκbα mRNA prevented TGF-β1 injection from activating hypothalamic NF-κB (FIG. 5f). Metabolic analysis confirmed that this treatment attenuated the effect of TGF-β1 from impairing insulin-dependent glucose control (FIG. 5g).
Cell culture. GT1-7 cells were cultured as described previously (14). Briefly, GT1-7 cells were maintained in Dulbecco's Modified Eagle's Medium (Invitrogen) with 10% fetal bovine serum (Hyclone) and penicillin/streptomycin (Invitrogen), at 37° C. in a humidified atmosphere containing 5% CO2. Cells were fasted in serum-free medium for an overnight period, and then were subjected to TGF-β1 treatment at the indicated dose and time course.

[3] = TGF-β1 concentrations in CSF and blood after third-ventricle injection; format: in vivo, mice
Method: Brain TGF-β excess impairs glucose tolerance: To study the metabolic effects of brain TGF-β excess, a pharmacological approach was first used by which TGF-β was delivered into the hypothalamic third ventricle of normal C57BL/6 mice via pre-implanted cannula. To optimize the dosage, different doses of TGF-β1 (0, 0.5, 1.0, and 4.0 ng) were injected, and TGF-β1 concentrations measured in the CSF at various time points post-injection. […] Based on this condition, overnight-fasted mice were given intra-third ventricle injections of TGF-β1 in these doses, one injection at night after food was removed, and the second injection in the following morning at 4 hours prior to glucose tolerance test (GTT). […] In sum, a pharmacological induction of brain TGF-β excess can acutely cause pre-diabetic changes including glucose intolerance and insulin resistance.
Protein, mRNA and peptide analyses. Hypothalami were isolated as previously described (14). Tissue lysis, SDS/PAGE and Western blotting were performed as previously described (19). Primary antibodies in Western blots included anti-IκBα (Santa Cruz, #SC847, 1:500), anti-p-TAK1 (Cell Signaling, #4531, 1:1000), anti-p-IκBα (Cell Signaling, #2859, 1:1000), anti-RelA (Cell Signaling, #3039, 1:1000), anti-p-RelA (Cell Signaling, #4764, 1:1000), and anti-β-actin (Cell Signaling, #4967S, 1:1000), and secondary antibodies were HRP-conjugated anti-rabbit or goat antibody (Pierce, 1:2000). Quantification of Western blots was processed with Image J. Total RNA was extracted from hypothalamic tissue using TRIzol® (Invitrogen), and cDNA was synthesized using M-MLV RT System (Promega). Using SYBR® Green PCR Master Mix (Applied Biosystems), expression levels of target genes were analyzed via PCR amplification and quantification. GAPDH or TBP mRNA levels were used for normalization. […] Serum and CSF TGF-β content were measured using TGF-β ELISA kit (R&D Systems).

With “TGF-β1: transforming growth factor-β1 (Sigma), cytokine dissolved in artificial cerebrospinal fluid for third-ventricle injection” the “HuR-containing aggregates in perinuclear regions of hypothalamic cells” value ([1]; HuR immunostaining) was “present”, the “hypothalamic increases of RNA SGs/PBs genes” value ([1]; injection into the third ventricle of normal mice (4 ng), similar to 3-month HFD) was “similarly induced” and the “hypothalamic IκBα mRNA levels” value ([1]; intra-third ventricle injection (4 ng)) was “sufficient to decrease”. The “Pomc mRNA levels in the hypothalamus vs controls” value ([1]; mouse, in vivo) was “lower”, the “IκBα mRNA levels” value [2] was “notably decreased” and the “CSF TGF-β1 concentration relative to basal concentration” value ([3]; 60 min post-injection) was “roughly 2 fold”. For the same substance, the “blood TGF-β1 concentration” value ([3]; doses 0.5, 1.0, 4.0 ng in third ventricle) was “None of these doses significantly increased” and the “time of peak increase of CSF TGF-β1 concentration” value ([3]; post-injection, third ventricle, 0.5-4.0 ng, dose-dependent) was 15 min.
